From patent US8101605B2, “SHIP1 modulators and methods related thereto” (Aquinox Pharmaceuticals Inc., priority 2009, dated 2012)

Key:
His-hSHIP1 enzyme = target: T1, His-hSHIP1 enzyme (Homo sapiens, UniProt Q92835); assay: His-hSHIP1 phosphatase activity assay (IP4 substrate, Biomol Green); format: biochemical; details: percentage increase relative to background; concentrations ≦300 μM
T1 sequence (Q92835 1-1189): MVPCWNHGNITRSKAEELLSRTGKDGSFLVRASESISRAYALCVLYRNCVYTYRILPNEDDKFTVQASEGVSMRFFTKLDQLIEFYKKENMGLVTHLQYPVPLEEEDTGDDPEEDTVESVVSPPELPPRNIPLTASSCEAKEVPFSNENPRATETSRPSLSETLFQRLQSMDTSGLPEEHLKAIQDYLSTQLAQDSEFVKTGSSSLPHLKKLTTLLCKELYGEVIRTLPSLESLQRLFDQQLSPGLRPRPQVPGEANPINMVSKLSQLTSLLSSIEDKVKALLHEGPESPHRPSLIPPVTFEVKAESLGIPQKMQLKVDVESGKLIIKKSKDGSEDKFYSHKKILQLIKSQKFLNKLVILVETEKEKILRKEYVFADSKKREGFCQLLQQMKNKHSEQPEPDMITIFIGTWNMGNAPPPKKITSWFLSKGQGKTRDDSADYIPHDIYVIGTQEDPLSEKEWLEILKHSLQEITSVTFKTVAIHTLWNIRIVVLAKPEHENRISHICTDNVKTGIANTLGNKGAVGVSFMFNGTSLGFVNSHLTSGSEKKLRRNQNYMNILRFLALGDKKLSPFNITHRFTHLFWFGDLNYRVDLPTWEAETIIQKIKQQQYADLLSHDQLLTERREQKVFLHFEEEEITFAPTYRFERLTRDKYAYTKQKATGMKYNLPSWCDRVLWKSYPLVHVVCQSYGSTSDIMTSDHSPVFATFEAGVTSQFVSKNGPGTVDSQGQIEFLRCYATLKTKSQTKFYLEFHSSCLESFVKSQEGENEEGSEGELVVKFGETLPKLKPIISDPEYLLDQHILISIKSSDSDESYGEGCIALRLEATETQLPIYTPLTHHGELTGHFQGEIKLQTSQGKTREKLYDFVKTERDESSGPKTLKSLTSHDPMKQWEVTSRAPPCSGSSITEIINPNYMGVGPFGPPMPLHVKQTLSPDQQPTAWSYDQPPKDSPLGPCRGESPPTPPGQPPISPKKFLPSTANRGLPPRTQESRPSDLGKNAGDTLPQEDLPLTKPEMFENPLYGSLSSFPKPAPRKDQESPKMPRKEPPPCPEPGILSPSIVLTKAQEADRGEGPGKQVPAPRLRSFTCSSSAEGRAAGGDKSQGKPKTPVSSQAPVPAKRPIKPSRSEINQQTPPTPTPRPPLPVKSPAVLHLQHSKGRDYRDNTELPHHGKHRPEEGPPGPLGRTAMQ
Method in brief: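 His-hSHIP1 (15–20 ng) was incubated with IP4 (50 μM final) and compound (0–300 μM final, from 10% ethanol solutions) in 20 mM Tris-HCl, 10 mM MgCl2 pH 7.5, 0.02% Tween 20 for 15 min at 37 °C. Released phosphate was read with Biomol Green at 650 nm. Activation is % increase over background, scored + (<50%), ++ (≥50% but <65%), +++ (≥65%).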

[1] = tested on: allergen-induced passive cutaneous anaphylaxis; assay: Passive cutaneous anaphylaxis in mice; format: in vivo; details: oral gavage, doses less than 20 mg/kg
Procedure: The activity of representative compounds on passive cutaneous anaphylaxis in mice was evaluated according to the procedures disclosed by Ovary, J Immunol 81, 355-357, 1958 and Halpern et al., Br J Pharmacol Chemother 20, 389-398, 1963, both of which are incorporated herein by reference in their entirety. To induce a passive cutaneous anaphylaxis, mice underwent intradermal ear inoculation on their right ear with 25 ng in 20 μL of anti-DNP-IgE. The left ears were untreated and served as negative controls. Twenty-four hours after inoculation, all mice were administered test compound by oral gavage (PO). Sixty minutes after oral administration, mice were given a tail vein injection of 2% Evan's blue (0.2 μm filtered, in 200 μL saline) followed by a second tail IV injection of 100 μg DNP-HSA (in 200 μL). Sixty minutes following the DNP-HSA injection, mice were euthanized using CO2 inhalation. Subsequently, ear biopsies were performed by taking four millimetre punches from both ears, which then underwent Evan's Blue extraction using formamide incubation in 96 well plates. Eighty μL of eluents were transferred to flat-bottom 96-well plates and absorbance read using SpectraMax M5 spectrophotometer (Molecular Devices, Sunnyvale, Calif., USA) at 620 nm. Background readings from all samples were taken at 740 nm and subtracted from the 620 nm readings. Data were reported as OD. […] Scoring in Table 4 is expressed as follows: + (1-30% inhibition); ++ (31-50% inhibition); +++ (>50% inhibition).

Q: How did the “Scoring: percent (%) activation of His-hSHIP1 enzyme” value (His-hSHIP1 enzyme) turn out when `CC1(C)CCC[C@]2(C)[C@H]3COc4c(O)cc(O)cc4[C@]3(C)CC[C@@H]12` [Compound No. 43, (1R,10R,11S,16S)-1,11,15,15-tetramethyl-8-oxatetracyclo[8.8.0.0^2,7.0^11,16]octadeca-2,4,6-triene-4,6-diol] was run?
A: The value was “+ (<50%)”.

Q: What about the “Scoring: inhibition of passive cutaneous anaphylaxis” value [1] of the same compound?
A: The value was “+ (1-30% inhibition)”.
